Reference: patent US7026330B2, “Methods for treatment of acute lymphocytic leukemia” (The Children's Hospital of Philadelphia, priority 2002, dated 2006)
Entries after “also recorded” stand apart in the source; their conditions may differ. Like-named read-outs stand apart in the source and are kept apart here.

Columns and labels:
[1] = system: ALL cell lines; experiment: RAD001 growth suppression in ALL cells in vitro; type: cell-based
[2] = system: Eμ-RET+ mice with advanced leukemia; experiment: RAD001 in the ALL mouse model; type: in vivo; details: daily oral administration
Source text: RAD001 inhibits growth >50–90% in ALL cell lines. Daily oral administration of RAD001 extends survival almost 4 fold in Eμ-RET+ mice with advanced leukemia (high white blood count, large nodal masses, and massive hepatosplenomegaly) as compared to untreated littermates.

[3] = system: Eμ-RET+ transgenic mouse derived cell lines, #83, T309, #289, #420.2; experiment: MTT proliferation assay, ALL cell lines; type: cell-based
Procedure: (§1) Cell Preparation and Cell Culture Conditions. A single cell suspension of bone marrow or lymph nodes from leukemic Eμ-RET+ transgenic mice was prepared [Wasserman, 1998]. These ALL cells were maintained at 37° C. with 5% CO2 in RPMI-1640, L-Glutamine, 10 mM HEPES, 1 mM Sodium Pyruvate, 100 μM non-essential amino acids, 100 U/ml penicillin, 100 μg/ml streptomycin (GibCo-BRL, Rocksville, Md.), 50 μM 2-mercaptoethanol (FisherScientific, Fair Lawn, N.J.)+10% Fetal Calf Serum (HyClone, Logan, Utah)+10% Calf Serum (HyClone, Logan Utah) (C20 media) with 10 U/ml IL-7. Cell surface markers on these cells were determined by flow cytometry as described previously [Wasserman, 1998], and the phenotype was stable in culture over time.
(§2) Proliferation Assays. Cells were cultured in IL-7-free C20 media for 24 hours. […] Cell growth was assayed using methyl-thiazole-tetrazolin (MTT) [Mosmann, 1983]. After removing 50 μl media from each well, 10 μl MTT, 5 mg/ml, (Sigma, St. Louis, Mo.) was added to each sample and incubated for 4 hours. 150 μl 1% HCL/Isopropanol was added to each sample and mixed vigorously until all crystals dissolved. Absorbance was measured at OD595 using microplate spectrophotometer (Benchmark Microplate Reader, Bio-Rad Laboratories, Hercules, Calif.). Results are expressed as mean of absolute absorbance numbertreated sample divided by the mean of absolute absorbance numbercontrol sample. Results >1 indicates proliferation whereas results <1 indicates growth inhibition.

[4] = system: pro-B ALL cell line T309; experiment: Apoptosis assay (Annexin V-FITC, flow cytometry); type: cell-based, mouse; details: 72 hours, baseline 24%
Procedure: Apoptosis Assay. […] Levels of exposed phosphotidylserine on viable cells were measured using the ApoAlert Annexin V detection kit (Clontech, Palo Alto, Calif.). Cells were incubated with FITC-conjugated Annexin V, and log fluorescence intensity was analyzed by flow cytometry using a FACScan cytometer (Becton-Dickinson, Franklin Lakes, N.J.).

[5] = system: Eμ-RET+ transgenic mice with overt disease; details: for Plt, mean / WBC, mean / Weight, mean: treated group
Procedure: Mice were assessed three times a week for overt signs of disease (enlarged lymph nodes, organomegaly, and anemia). […] Prior to randomization, easily accessible enlarged lymph nodes were biopsied for cell culture and further in vitro study. Peripheral blood for CBC with differential (HemaVet 850FS, Cell Technologies, Oxford, Conn.) and pK studies was obtained by eye bleeding at days 0, 7, 14 and then every other week until death. Peripheral blood as well as single cell suspension from bone marrow, lymph nodes and/or spleen was obtained at death. Weights were monitored three times a week. […] Animals were sacrificed when moribund. Event free survival (EFS) was determined from onset of disease until death, and analyzed using STATA 7.0 (STATA Corporation, College Park, Tex.).

[6] = cited from earlier work; for trough concentration: Phase III studies with cyclosporine, steroid, or both; for mean time-to-peak concentration: oral
[7] = cited from earlier work
[8] = system: steroid refractory severe acute GVHD; details: cited from earlier work
[9] = system: ALL cell line #289; experiment: MTT proliferation assay, cell line #289; type: cell-based, mouse
Procedure: as §1, §2

[10] = system: cell line #420.2; experiment: MTT proliferation assay, cell line #420.2; type: cell-based, mouse; details: increasing rmIL-7 0–30 U/ml, no stroma, 4–5 days
Procedure: as §1
as §2, with “150 μl 1% HCL/Isopropanol was added to each sample and mixed vigorously until all crystals dissolved.” left out, “Results >1 indicates proliferation whereas results <1 indicates growth inhibition.” left out

[11] = system: cell line T309; experiment: MTT proliferation assay, cell line T309; type: cell-based, mouse; details: increasing rmIL-7 0–30 U/ml, no stroma, 4–5 days
Procedure: as §1
as §2, with “150 μl 1% HCL/Isopropanol was added to each sample and mixed vigorously until all crystals dissolved.” left out, “Results >1 indicates proliferation whereas results <1 indicates growth inhibition.” left out

[12] = system: #781 cell line; experiment: MTT proliferation assay, cell line #781; type: cell-based, mouse; details: increasing rmIL-7 0–30 U/ml, no stroma, 4–5 days
Procedure: as §1
as §2, with “150 μl 1% HCL/Isopropanol was added to each sample and mixed vigorously until all crystals dissolved.” left out, “Results >1 indicates proliferation whereas results <1 indicates growth inhibition.” left out

[13] = system: cell line #83; experiment: MTT proliferation assay, cell line #83; type: cell-based, mouse; details: increasing rmIL-7 0–30 U/ml, no stroma, 4–5 days
Procedure: as §1
as §2, with “150 μl 1% HCL/Isopropanol was added to each sample and mixed vigorously until all crystals dissolved.” left out, “Results >1 indicates proliferation whereas results <1 indicates growth inhibition.” left out

[14] = system: A20 mature B cell line; experiment: Proliferation of mature B cell line A20; type: cell-based; details: data not shown
Procedure: as §2

[15] = system: phosphor-p70S6 kinase (Thr389); experiment: Immunoblotting of p70S6 kinase in ALL cell line #289; type: cell-based, mouse; details: 4 hours
Procedure: Crude Lysate Preparation and Immunoblotting. […] After harvesting, cells were washed with ice cold PBS and then lysed in 100 μl of 1% Triton-X containing protease and phosphatase inhibitors (1 μg/ml apoprotinin, 1 μg/ml leupeptin, 1 mM […], 1 mM NaF, 0.1 mM AEBSF) at 4° C. for 5 minutes. Crude lysates were obtained by centrifugation (12,000 rpm at 4° C. for 20 minutes). Protein concentrations were determined using Bio-Rad Protein assay kit (Bio-Rad Laboratories, Hercules, Calif.). Equal amounts of protein were analyzed by 4–12% Tris-Bis gel electrophoresis and transferred to PVDF membranes (NuPage Invitrogen, Carlsbad, Calif.). Specific proteins were detected with anti-Phosphor-p70S6 kinase (Thr389) and anti-total p70S6 kinase antibodies (Cell Signaling Technologies, Beverly, Mass.) diluted in TTBS (1:500). Immunodetection was performed with horseradish peroxidase-conjugated anti-rabbit IgG and then developed by chemoluminescence (Amersham Pharmacia Biotech, Piscataway, N.J.). Immunoblots were stripped for reprobing by incubating immunoblots in stripping buffer (100 mM 2-mercaptoethanol, 2% sodium dodecyl sulphate, 62.5 mM Tris-HCl pH 6.7) for 30 minutes in 37° C. water bath with occasional agitation. […] Specific proteins were immunoblotted and detected as above.

[16] = system: YES proto-oncogene; experiment: mRNA expression in ALL cells (Affymetrix MG-U74Av4 Genechips); type: cell-based; details: addition of IL-7
Source text: We found the most profound change in expression in the YES proto-oncogene, a member of the src family of kinases. […] However, the ability of IL-7 to reverse rapamycin-induced growth inhibition may involve other target proteins downstream of p70S6 kinase, such as p27kip1 or cdk2.

[17] = Mus musculus, 72 h, read-out: inhibition of growth

CO[C@H]1C[C@@H]2CC[C@@H](C)[C@@](O)(O2)C(=O)C(=O)N2CCCC[C@H]2C(=O)O[C@H]([C@H](C)C[C@@H]2CC[C@@H](OCCO)[C@H](OC)C2)CC(=O)[C@H](C)/C=C(\C)[C@@H](O)[C@@H](OC)C(=O)[C@H](C)C[C@H](C)/C=C/C=C/C=C/1C [RAD001, everolimus]
growth inhibition [1]: 50–90%
extension of survival vs untreated littermates [2]: ~4 fold
nodal masses [2]: disappearance of nodal masses
peripheral WBC counts [2]: normalization of peripheral WBC counts

CO[C@H]1C[C@@H]2CC[C@@H](C)[C@@](O)(O2)C(=O)C(=O)N2CCCC[C@H]2C(=O)O[C@H]([C@H](C)C[C@@H]2CC[C@@H](O)[C@H](OC)C2)CC(=O)[C@H](C)/C=C(\C)[C@@H](O)[C@@H](OC)C(=O)[C@H](C)C[C@H](C)/C=C/C=C/C=C/1C [rapamycin]
inhibition at 0.001 µg/mL [3, 17]: > 40%
inhibition at 0.1 µg/mL [3, 17]: > 70%
cells labeled with Annexin V ([4]; 1 ng/ml rapamycin): 44%
cells labeled with Annexin V ([4]; 100 ng/ml rapamycin): 51%
mean hemoglobin and platelet counts, untreated vs rapamycin treated mice ([5]; 5 mg/kg IP daily): not significantly different
time to normalization of WBC after instituting therapy ([5]; 5 mg/kg IP daily): 7 to 10 days
weights of treated versus untreated groups ([5]; 5 mg/kg IP daily): not significantly different
average time from diagnosis to death ([5]; 5 mg/kg IP daily, N=34, untreated 12 days (N=23), p<0.001): 30 days
extension of survival vs untreated mice ([5]; 5 mg/kg IP daily, single agent, advanced disease): ~3 fold
WBC nadir of the typical mouse of FIG. 8 ([5]; after 14 days of rapamycin, WBC 28.8 at presentation): 3.2
Plt, mean ([5]; D0): 695000 µL⁻¹
WBC, mean ([5]; D0): 47800 µL⁻¹
Weight, mean ([5]; D0): 25.6 grams
Plt, mean ([5]; D7): 584000 µL⁻¹
WBC, mean ([5]; D7): 18500 µL⁻¹
Weight, mean ([5]; D14): 28.1 grams
Plt, mean ([5]; at sacrifice): 573000 µL⁻¹
WBC, mean ([5]; at sacrifice): 31000 µL⁻¹
Weight, mean ([5]; at sacrifice): 28.10 grams
Plt, mean ([5]; d21): 526000 µL⁻¹
WBC, mean ([5]; d21): 14300 µL⁻¹
trough concentration ([6]; 2 mg/day): 8.58 ± 4.0 ng/mL
trough concentration ([6]; 5 mg/day): 17.3 ± 7.4 ng/mL
elimination of the drug via the GI tract ([6]; human, in vivo): 91%
metabolism ([6]; human, in vivo): intestinal and hepatic CYP3A4 enzyme family
time to near steady-state concentrations ([6]; loading dose of 3 times the maintenance dose, most patients): ≤ 1 days
mean time-to-peak concentration ([6]; healthy subjects): 1 h
mean time-to-peak concentration ([6]; renal transplant recipients): 2 h
typical serum levels of patients ([6]; patients on rapamycin [MacDonald, 2000]): 8 to 12 ng/mL
half-lives ([6]; pediatric patients 5–11 years): shorter
oral clearances ([6]; pediatric patients 5–11 years): greater
dose dependence of concentrations ([6]; stable renal transplant patients, between 3 and 12 mg/m^2): dose proportional
major side effects ([7]; adult organ rejection trials, 2 mg or 5 mg daily with cyclosporine and corticosteroids): thrombocytopenia, hypercholesteremia, hypertriglyceridemia, and diarrhea
toxicities of CTC Grade III and IV ([7]; pediatric kidney transplantation, with corticosteroids and MMF): stomatitis, hypercholesteremia, and hypertriglyceridemia
toxicity in single dosing studies ([7]; single doses ranging from 3–21 mg/m^2): No toxicity
discontinuation of drug because of toxicities ([8]; 21 patients): 5 patients
hemolytic uremic syndrome developed ([8]; cyclosporine dose not reduced): 5 patients
most common side effects ([8]; in vivo): thrombocytopenia and neutropenia, elevated serum triglycerides and cholesterol

B1: rmIL-7: recombinant mouse IL-7 (rmIL-7) (Leinco Technologies, Inc.) (protein, UniProt P10168 26-154, looked up)
Interleukin-7: ECHIKDKEGKAYESVLMISIDELDKMTGTDSNCPNNEPNFFRKHVCDDTKEAAFLNRAARKLKQFLKMNISEEFNVHLLTVSQGTQTLVNCTSKEEKNVKEQKKNDACFLKRLLREIKTCWNKILKGSI
concentration at which the response appears to plateau ([3]; cell lines #83, #781, T309, #289, #420.2): 10–30 U/ml
increase in proliferation ([9]; increasing rmIL-7 0–30 U/ml, no stroma, 4–5 days): 2.2 fold
reversal of rapamycin-induced growth inhibition ([9]; rmIL-7 10 U/ml with rapamycin 1 ng/ml, 3 days): completely reverses
reversal of rapamycin's effect on cell growth ([9]; rmIL-7 10 U/ml with rapamycin 100 ng/ml, 3 days, only partial): ~80 % of baseline
increase in proliferation [10]: 2.2 fold
increase in proliferation [11]: 3.7 fold
increase in proliferation [12]: 16 fold
increase in proliferation [13]: ~100 fold
proliferation [14]: not affected
effect on rapamycin-induced decrease in phosphor-p70S6 kinase ([15]; 10 U/ml IL-7 + 100 ng/ml rapamycin, listed as IL-7): reversed; also recorded: restored to baseline
p70S6 kinase total protein levels ([15]; 100 ng/ml rapamycin or 10 U/ml IL-7): unchanged
effect on YES expression in rapamycin-treated cells [16]: completely rescued
